Data published in patent US11571454B2, “Anticancer peptides that synergistically enhance chemotherapeutic potency” (The Penn State Research Foundation, priority 2017, dated 2023).

How the values were obtained:
[1] = tested on: OVCAR-3 cells; test: Combinatorial (checkerboard) cytotoxicity, OVCAR-3; type: cell-based, human; settings: for Combined FIC Score, OVCAR-3: chemotherapeutic in combination with MAD1, FIC <1 additive, <0.5 synergistic; for synergy with MAD1, OVCAR-3: drug-refractory line, combination with MAD1
Excerpt: (§1) For combinatorial cytotoxicity experiments, 96 well plates were set up in a checkerboard fashion such that peptide decreased in 1:10 concentration dilutions in one direction and chemotherapeutic decreased in 1:10 concentration dilutions in the orthogonal direction. 2×treatments were combined prior to cell administration for a final 1×concentration to prevent individual treatment effects.

[2] = tested on: NCI/ADR-RES cells; test: Combinatorial (checkerboard) cytotoxicity, NCI/ADR-RES; type: cell-based, human; settings: for Combined FIC Score, NCl/ADR-RES: chemotherapeutic in combination with MAD1, FIC <1 additive, <0.5 synergistic; for drug potency (IC50) in NCI/ADR-RES on co-treatment with MAD1: in the presence of 20 μM MAD1, compared with OVCAR-3; for synergy with MAD1, NCI/ADR-RES: multidrug resistant line, combination with MAD1
Excerpt: as §1

[3] = tested on: patient-derived tumor cell spheroids (EOC15, 17, 19); test: Ex vivo 3D tumor spheroid culture; type: cell-based, human
Protocol: EOC patient-derived cells were cultured in 1:1 MCDB-105: M199 supplemented with 10% FBS and 1% penicillin-streptomycin. EOC patient-derived cells were provided by Dr. Katherine M. Aird under an Institutional Review Board-approved protocol. EOC patient-derived cells were collected from patient ascites fluid after paracentesis procedures. Cells were routinely tested for mycoplasma as previously described. […] Spheroid length and width was calculated using ImageJ. Spheroid volume was calculated using the following equation […] Statistical Methods […] IC50 values are reported as mean values±standard deviation. […] Pore size frequency distribution was completed by ImageJ FIJI on 4 independent cells and n=30 pores from SEM images. […] Individual UV-Vis and CD spectra, as well as fluorescent confocal and TEM micrographs, shown are representative plots from three individual experiments. CD data is with a variance in ellipticity of 0.2 millidegrees at each wavelength. Relative fluorescence data calculated from fluorescent confocal images represents the average of 10 independent measurements±standard deviation. For spheroid volume analysis, a Kruskal-Wallis test and Dunn's multiple comparisons test was performed using GraphPad Prism 8.

[4] = tested on: A549 (lung carcinoma) cells; test: MTT cytotoxicity assay, A549; type: cell-based, human; settings: for IC50: 48 hours treatment, MTT, read-out: Cancerous (IC50, μM) A549
Protocol: (§2) All cells were cultured using standard culture conditions at 37° C., 5% CO2, and 95% humidity. A549 (CCL-185), OVCAR-3 (HTB-161), T24 (HTB-4), and NCI/ADR-RES were cultured in RPMI-1640 supplemented with 10% v/v fetal bovine serum (FBS), 2 mM L-glutamine (L-Gln), 10,000 units penicillin/mL, 10 mg/mL streptomycin, and 25 μg/mL amphotericin B. HUVEC (PCS-100-010) cells were cultured in Vascular Cell Basal Media (PCS-100-030) supplemented with an Endothelial Cell Growth Kit-VEGF (PCS-100-041) and 10 μg/mL gentamycin in culture flasks coated with 0.1% gelatin by incubating at 37° C. for 15 min. NL20 (CRL-2503) cells were cultured in Ham's F12 supplemented with 1.5 g/L sodium bicarbonate, 2.7 g/L glucose, 2.0 mM L-glutamine, 0.1 mM nonessential amino acids, 0.005 mg/ml insulin, 10 ng/ml epidermal growth factor, 0.001 mg/ml transferrin, 500 ng/ml hydrocortisone and 4% fetal bovine serum, as advised by American Type Culture Collection (ATCC).
(§3) Viability was calculated by comparing to an untreated control.
(§4) All experiments were performed with n>6.
(§5) Cell viability experiments were completed n>6 in two independent experiments and analyzed using GraphPad Prism 8 to fit curves and calculate IC50 values using inhibitor vs. normalized response non-linear regression model. IC50 values are reported as mean values±standard deviation. […] Pore size frequency distribution was completed by ImageJ FIJI on 4 independent cells and n=30 pores from SEM images. UV-Vis OD600 and CD spectra are means of 5 and 3 replicates, respectively and reported as mean±standard deviation. Individual UV-Vis and CD spectra, as well as fluorescent confocal and TEM micrographs, shown are representative plots from three individual experiments. CD data is with a variance in ellipticity of 0.2 millidegrees at each wavelength. Relative fluorescence data calculated from fluorescent confocal images represents the average of 10 independent measurements±standard deviation. For spheroid volume analysis, a Kruskal-Wallis test and Dunn's multiple comparisons test was performed using GraphPad Prism 8.

[5] = tested on: NCI/ADR-RES (drug-resistant ovarian carcinoma) cells; test: MTT cytotoxicity assay, NCI/ADR-RES; type: cell-based, human; settings: for IC50: 48 hours treatment, MTT, read-out: Cancerous (IC50, μM) NCl/ADR-RES
Protocol: as §2, §3, §4, §5

[6] = tested on: polymicrobial panel (six bacterial lines); test: Antimicrobial activity against polymicrobial panel; type: cell-based; settings: six bacterial lines
[7] = tested on: OVCAR-3 ovarian carcinoma cells; settings: for IC50: 48 h
[8] = tested on: T24 (urinary bladder transitional cell carcinoma) cells; settings: 48 h
[9] = tested on: human umbilical vein endothelial cells (HUVEC); settings: 48 h
[10] = tested on: human lung epithelium (NL20); settings: 48 h
[11] = tested on: B. subtilis (168); settings: 24 hours, Gram Positive
[12] = tested on: MS S. aureus; settings: 24 hours, Gram Positive
[13] = tested on: MR S. aureus; settings: 24 hours, Gram Positive
[14] = tested on: P. aeruginosa; settings: 24 hours, Gram Negative
[15] = tested on: E. coli; settings: 24 hours, Gram Negative
[16] = tested on: M. tuberculosis; settings: 24 hours, Mycobacteria
[17] = tested on: panel of human cancer cell lines (A549, OVCAR-3, NCI/ADR-RES, T24)
[18] = Liposome disruption (OD600), cancer membrane model; settings: OD600 and visual flocculates
Protocol: (§6) Liposomes were prepared by extrusion techniques according to previous methods. Briefly, all liposomes were prepared in 2×concentration (5 mM). Healthy and cancer liposomal mimicking membranes were prepared with 72:23:[…] phosphatidylcholine (POPC):phosphatidylethanolamine (DOPE):phosphatidylserine (POPS) lipids, respectively. The lipids dissolved in chloroform were mixed in proper molar proportions before being evaporated under a stream of argon. The lipid film was then dried completely by lyophilization overnight. […] The extruded liposomes were then dialyzed in 3500 MWCO dialysis cassettes against water. Parallel optical density experiments were conducted measuring the absorbance at 600 nm (OD600) to track the kinetics and specificity of membrane disruption. Measurements were taken every 30 seconds for the first 10 min., followed by measurements every minute until 15 min.

[19] = Liposome disruption (OD600), normal membrane model
Protocol: as §6

[20] = tested on: non-cancerous cell lines HUVEC and NL20; test: MTT cytotoxicity, non-cancerous control cell lines; type: cell-based, human
Protocol: as §2, §3, §4

[21] = tested on: T24 (urinary bladder transitional cell carcinoma) cells; test: MTT cytotoxicity assay, T24; settings: IC50-HUVEC/IC50-T24

Compound: N.N.[Cl][Pt][Cl] [Cis, Cisplatin]
- Combined FIC Score, OVCAR-3 [1]: 0.31
- synergy with MAD1, OVCAR-3 [1]: potently synergizes
- Combined FIC Score, NCl/ADR-RES [2]: 0.27
- drug potency (IC50) in NCI/ADR-RES on co-treatment with MAD1 [2]: restored the potency
- synergy with MAD1, NCI/ADR-RES [2]: potently synergizes
- spheroid size, combination ([3]; 2 μM cisplatin combined with 4 μM MAD1, 48 hours): potent and synergistic anticancer effects
- spheroid size, single agent ([3]; 2 μM cisplatin or 4 μM MAD1 alone, 48 hours): minimal reduction in size

Compound: COc1cccc2c1C(=O)c1c(O)c3c(c(O)c1C2=O)C[C@@](O)(C(=O)CO)C[C@@H]3O[C@H]1C[C@H](N)[C@H](O)[C@H](C)O1 [Dox, Doxorubicin]
- Combined FIC Score, OVCAR-3 [1]: 0.33
- synergy with MAD1, OVCAR-3 [1]: potently synergizes
- Combined FIC Score, NCl/ADR-RES [2]: 0.37
- drug potency (IC50) in NCI/ADR-RES on co-treatment with MAD1 [2]: restored the potency
- synergy with MAD1, NCI/ADR-RES [2]: potently synergizes

Compound: H-RWGKWFKKNSHLS-NH2 [DAP2]
- IC50 [4]: > 100 µM
- IC50 [5]: > 100 µM
- antimicrobial activity against polymicrobial panel [6]: inactive
- IC50 [7]: > 100 µM
- Cancerous (IC50, μM) OVCAR-3 ([7]; 48 hours treatment, MTT): did not achieve an IC50
- IC50 [8]: > 100 µM
- IC50 [9]: > 100 µM
- IC50 [10]: > 100 µM
- MIC (μM) B. subtilis (168) [11]: >80 µM
- MIC (μM) MS S. aureus [12]: >80 µM
- MIC (μM) MR S. aureus [13]: >80 µM
- MIC (μM) P. aeruginosa [14]: >80 µM
- MIC (μM) E. coli [15]: >80 µM
- MIC (μM) M. tuberculosis [16]: >80 µM
- activity towards all four tumor cell lines tested ([17]; result in words): inactive

Compound: CC(=O)O[C@H]1C(=O)[C@@]2(C)[C@H]([C@H](OC(=O)c3ccccc3)[C@]3(O)C[C@H](OC(=O)[C@H](O)[C@@H](NC(=O)c4ccccc4)c4ccccc4)C(C)=C1C3(C)C)[C@]1(OC(C)=O)CO[C@@H]1C[C@@H]2O [Ptx, Paclitaxel]
- Combined FIC Score, NCl/ADR-RES [2]: 0.27
- synergy with MAD1, NCI/ADR-RES [2]: potently synergizes

Compound: H-LWKRWVGVWRKWL-NH2 [DAP1]
- IC50 [4]: 11.9 µM
- Therapeutic Index A549 ([4]; IC50-HUVEC/IC50-A549): 1.6
- IC50 [5]: 14 µM
- Therapeutic Index NCl/ADR-RES ([5]; IC50-HUVEC/IC50-NCI/ADR-RES): 1.4
- disruption/lysis of cancer membrane liposomes [18]: does not completely lyse
- disruption/interaction with normal (healthy) membrane liposomes [19]: little interaction affinity
- antimicrobial activity against polymicrobial panel [6]: bactericidal activity
- toxicity towards non-cancerous control cell lines [20]: nearly equal toxicity
- IC50 [7]: 8.6 µM
- Therapeutic Index OVCAR-3 ([7]; IC50-HUVEC/IC50-OVCAR-3): 2.3
- IC50 [8]: 15.3 µM
- IC50 [9]: 19.5 µM
- IC50 [10]: 19 µM
- MIC (μM) B. subtilis (168) [11]: <0.6 µM
- MIC (μM) MS S. aureus [12]: 7 µM
- MIC (μM) MR S. aureus [13]: 5 µM
- MIC (μM) P. aeruginosa [14]: 20 µM
- MIC (μM) E. coli [15]: 10 µM
- MIC (μM) M. tuberculosis [16]: 20 µM
- IC50 [17]: 8.6 to 15.3 µM
- therapeutic indices across cell lines ([17]; relative to HUVEC controls): ≤ 2.3
- Therapeutic Index T24 [21]: 1.3
